Assays:
[1] = Inhibition of HCV genotype 1b wild type NS5B polymerase using biotinylated oligo dT12 primer as substrate after 4 hrs in presence of [3H]UTP; set-up: species or system Hepatitis C virus subtype 1b
Hepatitis C virus = assay: Antiviral activity against HCV genotype 1a H77c infected in human HuH7 cells after 3 days by luciferase reporter gene assay; assay type: functional, cell-based, Hepacivirus hominis; settings: Huh-7, 72 h
[2] = Cytotoxicity against human HuH7 cells after 4 hrs by CellTitre-Blue assay; assay type: cell-based, Huh-7
[3] = Plasma concentration in rat at 10 mg/kg, po after 6 hrs; assay type: ADME, organism-based; set-up: dose 10 mg/kg, route oral; settings: plasma
[4] = Clearance in rat after 6 hrs; assay type: ADME, organism-based; settings: in vivo
[5] = Plasma concentration in rat at 5 mg/kg, iv after 6 hrs; assay type: ADME, organism-based; set-up: dose 5 mg/kg, route intravenous; settings: plasma
[6] = Drug uptake in rat liver at 5 mg/kg, iv after 6 hrs; assay type: ADME, organism-based; set-up: dose 5 mg/kg, route intravenous; settings: liver, read-out: Drug uptake
[7] = Drug uptake in rat liver 10 mg/kg, po after 6 hrs; assay type: ADME, organism-based; set-up: dose 10 mg/kg, route oral; settings: liver, read-out: Drug uptake
[8] = Cytotoxicity against human HuH7 cells after 3 days by Alamar blue assay; assay type: cell-based, Huh-7
[9] = Permeability of the compound at pH 7.4 by PAMPA; assay type: physicochemical; settings: read-out: permeability
[10] = Ratio of EC50 for HCV genotype 1a H77c replicon cells to IC50 for HCV genotype 1b wild type NS5B polymerase

Row | SMILES | IC50 [1] | EC50 (Hepatitis C virus) | CC50 at 4 h [2] | other results
1 | COc1ccc2c(c1)[C@@H]1C[C@]1(C(=O)N1CC34COCC3(C1)CN(S(=O)(=O)C(C)C)C4)Cn1c-2c(C2CCCCC2)c2ccc(C(=O)NS(=O)(=O)N(C)C)cc21 (stereo partly drawn) | 2 nM | 6 nM | 12000 nM | –
2 | COc1ccc2c(c1)[C@@H]1C[C@]1(C(=O)N1CC34CNCC3(CN(C)C4)C1)Cn1c-2c(C2CCCCC2)c2ccc(C(=O)NS(=O)(=O)C(C)C)cc21 (stereo partly drawn) | 5 nM | 41 nM | – | –
3 | CCOCCN1CC23COCC2(C1)CN(C(=O)[C@]12C[C@H]1c1cc(OC)ccc1-c1c(C4CCCCC4)c4ccc(C(=O)NS(=O)(=O)C(C)C)cc4n1C2)C3 (stereo partly drawn) | – | 5 nM | 19000 nM | concentration at 6 h [3]: 8 nM; clearance [4]: 81 mL/min/kg; concentration at 6 h [5]: 32 nM; concentration at 6 h [6]: 77 nM; concentration at 6 h [7]: 116 nM
4 | COc1ccc2c(c1)[C@@H]1C[C@]1(C(=O)N1CC34COCC3(CN(C)C4)C1)Cn1c-2c(C2CCCCC2)c2ccc(C(=O)NS(=O)(=O)C(C)C)cc21 (stereo partly drawn) | 4 nM | 1 nM | – | concentration at 6 h [3]: 2 nM; clearance [4]: 27 mL/min/kg; concentration at 6 h [5]: 6 nM; concentration at 6 h [6]: 52 nM; CC50 at 72 h [8]: 14000 nM; concentration at 6 h [7]: 38 nM
5 | CNC(=O)N1CC23COCC2(C1)CN(C(=O)[C@]12C[C@H]1c1cc(OC)ccc1-c1c(C4CCCCC4)c4ccc(C(=O)NS(=O)(=O)C(C)C)cc4n1C2)C3 (stereo partly drawn) | 3 nM | 200 nM | > 100000 nM | Papp [9]: 1.8 ×10⁻⁶ cm/s; Ratio [10]: 66
6 | COC(=O)N1CC23CCC2(C1)CN(C(=O)[C@]12C[C@H]1c1cc(OC)ccc1-c1c(C4CCCCC4)c4ccc(C(=O)NS(=O)(=O)C(C)C)cc4n1C2)C3 (stereo partly drawn) | 25 nM | 64 nM | 3000 nM | –
7 | COc1ccc2c(c1)[C@@H]1C[C@]1(C(=O)N1CC34CCC3(C1)CN(S(=O)(=O)C(C)C)C4)Cn1c-2c(C2CCCCC2)c2ccc(C(=O)NS(=O)(=O)C(C)C)cc21 (stereo partly drawn) | 4 nM | 7 nM | 10000 nM | –
8 | COc1ccc2c(c1)[C@@H]1C[C@]1(C(=O)N1CC34CCC3(CN(C(=O)N3CCOCC3)C4)C1)Cn1c-2c(C2CCCCC2)c2ccc(C(=O)NS(=O)(=O)C(C)C)cc21 (stereo partly drawn) | 5 nM | 28 nM | 27000 nM | –
9 | CCOCCN1CC23COCC2(C1)CN(C(=O)[C@]12C[C@H]1c1cc(OC)ccc1-c1c(C4CCCCC4)c4ccc(C(=O)NS(=O)(=O)N(C)C)cc4n1C2)C3 (stereo partly drawn) | – | 3 nM | 16000 nM | –
10 | COc1ccc2c(c1)[C@@H]1C[C@]1(C(=O)N1CC34CCC3(CN(C(=O)N3CCCC3)C4)C1)Cn1c-2c(C2CCCCC2)c2ccc(C(=O)NS(=O)(=O)N(C)C)cc21 (stereo partly drawn) | 2 nM | 18 nM | 10000 nM | –
11 | COC(=O)N1CC23COCC2(C1)CN(C(=O)[C@]12C[C@H]1c1cc(OC)ccc1-c1c(C4CCCCC4)c4ccc(C(=O)NS(=O)(=O)N(C)C)cc4n1C2)C3 (stereo partly drawn) | – | 462 nM | 7000 nM | –
12 | COc1ccc2c(c1)[C@@H]1C[C@]1(C(=O)N1CC34CCC3(C1)CN(C1CC1)C4)Cn1c-2c(C2CCCCC2)c2ccc(C(=O)NS(=O)(=O)N(C)C)cc21 (stereo partly drawn) | – | 8 nM | 5000 nM | –
13 | COc1ccc2c(c1)[C@@H]1C[C@]1(C(=O)N1CC34CCC3(CN(C(C)=O)C4)C1)Cn1c-2c(C2CCCCC2)c2ccc(C(=O)NS(=O)(=O)C(C)C)cc21 (stereo partly drawn) | 2 nM | 31 nM | 37000 nM | –
14 | COc1ccc2c(c1)[C@@H]1C[C@]1(C(=O)N1CC34CNCC3(COC4)C1)Cn1c-2c(C2CCCCC2)c2ccc(C(=O)NS(=O)(=O)C(C)C)cc21 (stereo partly drawn) | 6 nM | 23 nM | – | –
15 | COc1ccc2c(c1)[C@@H]1C[C@]1(C(=O)N1CC34COCC3(C1)CN(S(=O)(=O)C(C)C)C4)Cn1c-2c(C2CCCCC2)c2ccc(C(=O)NS(=O)(=O)C(C)C)cc21 (stereo partly drawn) | 2 nM | 16 nM | 17000 nM | Ratio [10]: 8
16 | CNC(=O)N1CC23CCC2(C1)CN(C(=O)[C@]12C[C@H]1c1cc(OC)ccc1-c1c(C4CCCCC4)c4ccc(C(=O)NS(=O)(=O)C(C)C)cc4n1C2)C3 (stereo partly drawn) | 2 nM | 20 nM | 72000 nM | –
17 | COc1ccc2c(c1)[C@@H]1C[C@]1(C(=O)N1CC34CCC3(CN(C(=O)N3CCCC3)C4)C1)Cn1c-2c(C2CCCCC2)c2ccc(C(=O)NS(=O)(=O)C(C)C)cc21 (stereo partly drawn) | 4 nM | 27 nM | 14000 nM | –
